We go through 28 molecules from patent US20080161320A1, “FUSED BICYCLIC PYRIMIDINES AS PTK INHIBITORS CONTAINING A ZINC BINDING MOIETY” (priority 2006, published 2008).

In one assay the test system is HDAC. Nature of the assay: HDAC fluorimetric assay kit (AK-500, Biomol), HeLa nuclear extract. It is filed as biochemical. On the procedure:
HDAC inhibitors were screened using an HDAC fluorimetric assay kit (AK-500, Biomol, Plymouth Meeting, Pa.). […] Each assay was setup as follows: Defrosted all kit components and kept on ice until use. […] Prepared dilutions of Trichostatin A (TSA, positive control) and tested compounds in assay buffer (5× of final concentration). Diluted Fluor de Lys™ Substrate in assay buffer to 100 uM (50 fold=2× final). Diluted Fluor de Lys™ developer concentrate 20-fold (e.g. 50 μl plus 950 μl Assay Buffer) in cold assay buffer. Second, diluted the 0.2 mM Trichostatin A 100-fold in the 1× Developer (e.g. 10 μl in 1 ml; final Trichostatin A concentration in the 1× Developer=2 μM; final concentration after addition to HDAC/Substrate reaction=1 μM). Added Assay buffer, diluted trichostatin A or test inhibitor to appropriate wells of the microtiter plate. Added diluted HeLa extract or other HDAC sample to all wells except for negative controls.

The target of another assay is T1, human EGFR (Homo sapiens, UniProt P00533).
T1 construct: human EGFR (His672-Ala1210); GST (N); purchased Cell Signaling Technologies; host or cells: baculovirus expression system
T1 sequence (P00533 672-1210): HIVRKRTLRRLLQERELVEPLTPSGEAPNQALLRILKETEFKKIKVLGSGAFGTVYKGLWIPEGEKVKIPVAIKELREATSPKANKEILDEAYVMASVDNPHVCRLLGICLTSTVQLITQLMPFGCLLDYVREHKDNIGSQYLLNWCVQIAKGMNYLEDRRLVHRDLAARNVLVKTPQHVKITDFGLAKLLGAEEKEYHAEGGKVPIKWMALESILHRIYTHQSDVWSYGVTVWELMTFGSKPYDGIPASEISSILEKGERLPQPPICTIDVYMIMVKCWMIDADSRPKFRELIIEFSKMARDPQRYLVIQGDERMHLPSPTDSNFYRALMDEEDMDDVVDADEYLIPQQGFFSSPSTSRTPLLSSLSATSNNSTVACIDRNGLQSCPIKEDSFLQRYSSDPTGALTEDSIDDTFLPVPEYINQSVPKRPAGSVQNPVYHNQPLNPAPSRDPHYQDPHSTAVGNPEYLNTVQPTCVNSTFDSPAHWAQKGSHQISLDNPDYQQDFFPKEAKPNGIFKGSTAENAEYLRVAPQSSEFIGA
The experiment in a line: HTScan Receptor Kinase Assay, EGFR. The class given is biochemical.

A further assay has as its target human HER2/ErbB2 (Homo sapiens, UniProt P04626). Nature of the assay: HTScan Receptor Kinase Assay, HER2/ErbB2.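 Also: europium time-resolved fluorescence detection of anti-phosphotyrosine antibody binding to biotinylated FLT3 (Tyr589) peptide phosphorylated by the kinase, 30 min reaction at room temperature.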
The target of the next assay is human VEGFR2 (Homo sapiens, UniProt P35968). The experiment in a line: HTScan Receptor Kinase Assay, VEGFR2.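 Also: recombinant GST-His-tagged human VEGFR2 kinase domain phosphorylating biotinylated gastrin precursor peptide, 30 min at room temperature, phosphotyrosine detected by Europium-labelled antibody time-resolved fluorescence.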
Chain of human VEGFR2 (P35968 807-1356 limits assumed): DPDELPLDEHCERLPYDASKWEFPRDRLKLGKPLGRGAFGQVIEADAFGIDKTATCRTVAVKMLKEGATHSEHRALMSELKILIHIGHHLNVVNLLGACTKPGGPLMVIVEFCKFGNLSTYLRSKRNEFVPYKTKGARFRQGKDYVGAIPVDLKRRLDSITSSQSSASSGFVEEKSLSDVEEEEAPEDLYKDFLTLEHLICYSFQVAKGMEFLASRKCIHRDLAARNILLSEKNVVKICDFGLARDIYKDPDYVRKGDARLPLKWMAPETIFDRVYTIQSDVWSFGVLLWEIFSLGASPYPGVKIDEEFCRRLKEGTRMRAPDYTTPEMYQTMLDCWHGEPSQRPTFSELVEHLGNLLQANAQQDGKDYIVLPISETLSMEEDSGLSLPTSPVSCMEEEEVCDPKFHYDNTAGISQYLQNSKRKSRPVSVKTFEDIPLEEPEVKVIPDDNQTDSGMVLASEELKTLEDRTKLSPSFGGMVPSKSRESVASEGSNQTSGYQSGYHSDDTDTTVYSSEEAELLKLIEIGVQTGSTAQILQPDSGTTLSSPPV

Chain of human HER2/ErbB2 (P04626 676-1255): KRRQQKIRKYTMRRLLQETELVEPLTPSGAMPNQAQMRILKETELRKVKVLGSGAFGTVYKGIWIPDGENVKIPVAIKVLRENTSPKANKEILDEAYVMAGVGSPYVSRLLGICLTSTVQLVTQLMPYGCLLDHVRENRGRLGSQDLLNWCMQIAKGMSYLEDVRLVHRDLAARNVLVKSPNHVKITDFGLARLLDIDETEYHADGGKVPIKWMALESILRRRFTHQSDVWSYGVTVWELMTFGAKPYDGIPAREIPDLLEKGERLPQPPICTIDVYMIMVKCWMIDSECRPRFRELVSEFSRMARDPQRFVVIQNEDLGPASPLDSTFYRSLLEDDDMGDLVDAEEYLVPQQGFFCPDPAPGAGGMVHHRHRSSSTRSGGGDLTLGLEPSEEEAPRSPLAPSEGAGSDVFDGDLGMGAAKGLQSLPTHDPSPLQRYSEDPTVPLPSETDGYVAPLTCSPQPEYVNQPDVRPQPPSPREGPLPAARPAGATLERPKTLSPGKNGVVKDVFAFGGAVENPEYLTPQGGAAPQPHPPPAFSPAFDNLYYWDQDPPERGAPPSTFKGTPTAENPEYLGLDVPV
Experimental for human HER2/ErbB2: (§1) The ability of compounds to inhibit receptor kinase (EGFR, HER2/ErbB2, and VEGFR2) activity was assayed using HTScan™ Receptor Kinase Assay Kits (Cell Signaling Technologies, Danvers, Mass.). […] VEGFR2 tyrosine kinase was produced using a baculovirus expression system from a construct containing a human VEGFR2 cDNA kinase domain (Asp805-Val1356) (GenBank accession No. AF035121) fragment amino-terminally fused to a GST-HIS6-Thrombin cleavage site. The proteins were purified by one-step affinity chromatography using glutathione-agarose. An anti-phosphotyrosine monoclonal antibody, P-Tyr-100, was used to detect phosphorylation of biotinylated substrate peptides (EGFR, Biotin-PTP1B (Tyr66); HER2/ErbB2, Biotinylated FLT3 (Tyr589); VEGFR2, Biotin-Gastrin Precursor (Tyr87).). […] Fluorescence was measured on a WALLAC Victor 2 plate reader and reported as relative fluorescence units (RFU). Data were plotted using GraphPad Prism (v4.0a) and IC50's calculated using a sigmoidal dose response curve fitting algorithm.
(§2) Each assay was setup as follows: Added 100 μl of 10 mM ATP to 1.25 ml 6 mM substrate peptide. Diluted the mixture with dH20 to 2.5 ml to make 2×ATP/substrate cocktail ([ATP]=400 mM, [substrate]=3 mM). Immediately transfer enzyme from −80° C. to ice. Allowed enzyme to thaw on ice. Microcentrifuged briefly at 4° C. to bring liquid to the bottom of the vial. Returned immediately to ice. […] Transfer 1.25 ml of DTT/Kinase buffer to enzyme tube to make 4× reaction cocktail ([enzyme]=4 ng/μL in 4× reaction cocktail). […] Incubated reaction plate at room temperature for 30 minutes. Added 50 μl/well Stop Buffer (50 mM EDTA, pH 8) to stop the reaction. Transferred 25 μl of each reaction and 75 μl dH2O/well to a 96-well streptavidin-coated plate and incubated at room temperature for 60 minutes. Washed three times with 200 μl/well PBS/T (PBS, 0.05% Tween-20). […] Added 100 μl/well primary antibody. Incubated at room temperature for 60 minutes. Washed three times with 200 μl/well PBS/T. Diluted Europium labeled anti-mouse IgG 1:500 in PBS/T with 1% BSA. Added 100 μl/well diluted antibody. Incubated at room temperature for 30 minutes. Washed five times with 200 μl/well PBS/T. Added 100 μl/well DELFIA® Enhancement Solution. Incubated at room temperature for 5 minutes.
Experimental for human VEGFR2: as §1, §2

Regarding `C[C@@H](Nc1ncnc2[nH]c(-c3ccc(CNCC(=O)NO)cc3)cc12)c1ccccc1` [Compound 1, (R)—N-Hydroxy-2-(4-(4-(1-phenylethylamino)-7H-pyrrolo[2,3-d]pyrimidin-6-yl)benzylamino)acetamide], the IC50 in the assay on HDAC, against human EGFR and against human HER2/ErbB2 was 1 to 10 µM throughout.

Consider `C[C@@H](Nc1ncnc2[nH]c(-c3ccc(CNCCC(=O)NO)cc3)cc12)c1ccccc1` [Compound 2, (R)—N-Hydroxy-3-(4-(4-(1-phenylethylamino)-7H-pyrrolo[2,3-d]pyrimidin-6-yl)benzylamino)-propanamide], for which the concentration for half-maximal inhibition (IC50) was over 10 µM in the assay on HDAC and 0.1 to 1 µM at human VEGFR2.

For the molecule `C[C@@H](Nc1ncnc2[nH]c(-c3ccc(CN4CCN(CC(=O)NO)CC4)cc3)cc12)c1ccccc1` [Compound 11, (R)—N-Hydroxy-2-(4-(4-(4-(1-phenylethylamino)-7H-pyrrolo[2,3-d]pyrimidin-6-yl)benzyl)piperazin-1-yl)acetamide], the IC50 with HDAC is over 10 µM; at human EGFR, under 0.1 µM; on human VEGFR2, under 0.1 µM; against human HER2/ErbB2, under 0.1 µM.

Consider `C[C@@H](Nc1ncnc2[nH]c(-c3ccc(CN4CCN(CCC(=O)NO)CC4)cc3)cc12)c1ccccc1` [Compound 12, (R)—N-Hydroxy-3-(4-(4-(4-(1-phenylethylamino)-7H-pyrrolo[2,3-d]pyrimidin-6-yl)benzyl)piperazin-1-yl)propanamide], for which the IC50 was over 10 µM in the assay on HDAC, under 0.1 µM against human EGFR, 0.1 to 1 µM at human VEGFR2 and under 0.1 µM at human HER2/ErbB2.

With `C[C@@H](Nc1ncnc2[nH]c(-c3ccc(CN4CCN(CCCC(=O)NO)CC4)cc3)cc12)c1ccccc1` [Compound 13, (R)—N-Hydroxy-4-(4-(4-(4-(1-phenylethylamino)-7H-pyrrolo[2,3-d]pyrimidin-6-yl)benzyl)piperazin-1-yl)butanamide], the IC50 is 1 to 10 µM with HDAC, under 0.1 µM at human EGFR, 0.1 to 1 µM against human VEGFR2 and under 0.1 µM against human HER2/ErbB2.

Regarding `C[C@@H](Nc1ncnc2[nH]c(-c3ccc(CN4CCN(CCCCC(=O)NO)CC4)cc3)cc12)c1ccccc1` [Compound 14, (R)—N-Hydroxy-5-(4-(4-(4-(1-phenylethylamino)-7H-pyrrolo[2,3-d]pyrimidin-6-yl)benzyl)piperazin-1-yl)pentanamide], the IC50 in the assay with HDAC is 1 to 10 µM; at human EGFR, under 0.1 µM; against human VEGFR2 it was 0.1 to 1 µM; against human HER2/ErbB2 it was 0.1 to 1 µM.

As for `C[C@@H](Nc1ncnc2[nH]c(-c3ccc(CN4CCN(CCCCCC(=O)NO)CC4)cc3)cc12)c1ccccc1` [Compound 15, (R)—N-Hydroxy-6-(4-(4-(4-(1-phenylethylamino)-7H-pyrrolo[2,3-d]pyrimidin-6-yl)benzyl)piperazin-1-yl)hexanamide], the IC50 with HDAC, at human VEGFR2 and against human HER2/ErbB2 was 0.1 to 1 µM each time.

In the case of `C[C@@H](Nc1ncnc2[nH]c(-c3ccc(CN4CCN(CCCCCCC(=O)NO)CC4)cc3)cc12)c1ccccc1` [Compound 16, (R)—N-Hydroxy-7-(4-(4-(4-(1-phenylethylamino)-7H-pyrrolo[2,3-d]pyrimidin-6-yl)benzyl)piperazin-1-yl)heptanamide], the IC50 was 0.1 to 1 µM in the assay with HDAC, under 0.1 µM at human EGFR, 0.1 to 1 µM on human VEGFR2 and under 0.1 µM against human HER2/ErbB2.

Regarding `C[C@@H](Nc1ncnc2[nH]c(-c3ccc(OCCCC(=O)NO)cc3)cc12)c1ccccc1` [Compound 19, (R)—N-Hydroxy-4-(4-(4-(1-phenylethylamino)-7H-pyrrolo[2,3-d]pyrimidin-6-yl)phenoxy)propanamide], the IC50 was 0.1 to 1 µM in the assay with HDAC, under 0.1 µM against human EGFR, 0.1 to 1 µM on human VEGFR2 and 0.1 to 1 µM against human HER2/ErbB2.

Regarding `C[C@@H](Nc1ncnc2[nH]c(-c3ccc(OCCCCC(=O)NO)cc3)cc12)c1ccccc1` [Compound 20, (R)—N-Hydroxy-5-(4-(4-(1-phenylethylamino)-7H-pyrrolo[2,3-d]pyrimidin-6-yl)phenoxy)pentanamide], the IC50 was 0.1 to 1 µM in the assay with HDAC, under 0.1 µM against human EGFR, 0.1 to 1 µM at human VEGFR2 and 0.1 to 1 µM against human HER2/ErbB2.

In the case of `C[C@@H](Nc1ncnc2[nH]c(-c3ccc(OCCCCCC(=O)NO)cc3)cc12)c1ccccc1` [Compound 21, (R)—N-hydroxy-6-(4-(4-(1-phenylethylamino)-7H-pyrrolo[2,3-d]pyrimidin-6-yl)phenoxy)hexanamide], the IC50 is under 0.1 µM in the assay on HDAC, under 0.1 µM on human EGFR, 1 to 10 µM on human VEGFR2 and 0.1 to 1 µM at human HER2/ErbB2.

For `C[C@@H](Nc1ncnc2[nH]c(-c3ccc(CN4CCN(CCCCCC(=O)NO)CC4)cc3)cc12)c1ccc(F)cc1` [Compound 35], the IC50 in the assay on HDAC, at human VEGFR2 and at human HER2/ErbB2 was 0.1 to 1 µM in each case.

On to `C[C@@H](Nc1ncnc2[nH]c(-c3ccc(CNCc4ccc(/C=C/C(=O)NO)cc4)cc3)cc12)c1ccccc1` [Compound 45, (R,E)-N-hydroxy-3-(4-((4-(4-(1-phenylethylamino)-7H-pyrrolo[2,3-d]pyrimidin-6-yl)benzylamino)methyl)phenyl)acrylamide], for which the IC50 at human EGFR, on human VEGFR2 and on human HER2/ErbB2 was over 10 µM throughout.

For the molecule `C[C@@H](Nc1ncnc2[nH]c(-c3ccc(NC(=O)Nc4ccc(C(=O)NO)cc4)cc3)cc12)c1ccccc1` [Compound 46], in the assay with HDAC, the IC50 fell in the range of 0.1 to 1 µM.

`C[C@@H](Nc1ncnc2[nH]c(-c3ccc(NC(=O)Nc4ccc(/C=C/C(=O)NO)cc4)cc3)cc12)c1ccccc1` [Compound 47] had an IC50 in the assay with HDAC of 1 to 10 µM.

Regarding `C[C@@H](Nc1ncnc2[nH]c(-c3ccc(CN4CCN(CCOCCCCC(=O)NO)CC4)cc3)cc12)c1ccccc1` [Compound 50, (R)—N-hydroxy-5-(2-(4-(4-(4-(1-phenylethylamino)-7H-pyrrolo[2,3-d]pyrimidin-6-yl)benzyl)piperazin-1-yl)ethoxy)pentanamide], the IC50 with HDAC is 1 to 10 µM.

`C[C@@H](Nc1ncnc2[nH]c(-c3ccc(CN4CCN(CCOCCCCCC(=O)NO)CC4)cc3)cc12)c1ccccc1` [Compound 51, (R)—N-hydroxy-6-(2-(4-(4-(4-(1-phenylethylamino)-7H-pyrrolo[2,3-d]pyrimidin-6-yl)benzyl)piperazin-1-yl)ethoxy)hexanamide] returned an IC50 in the assay with HDAC of under 0.1 µM.

With `C[C@@H](Nc1ncnc2[nH]c(-c3ccc(CN4CCC(NCCCCCC(=O)NO)CC4)cc3)cc12)c1ccccc1` [Compound 55, (R)—N-hydroxy-6-(1-(4-(4-(1-phenylethylamino)-7H-pyrrolo[2,3-d]pyrimidin-6-yl)benzyl)piperidin-4-ylamino)hexanamide], the half-maximal inhibitory concentration (IC50) in the assay with HDAC lay in the range of 1 to 10 µM.

With `C[C@@H](Nc1ncnc2[nH]c(-c3ccc(CN4CCC(NCCCCCCC(=O)NO)CC4)cc3)cc12)c1ccccc1` [Compound 56, (R)—N-hydroxy-7-(1-(4-(4-(1-phenylethylamino)-7H-pyrrolo[2,3-d]pyrimidin-6-yl)benzyl)piperidin-4-ylamino)heptanamide], the IC50 with HDAC was 1 to 10 µM.

In the case of `C[C@@H](Nc1ncnc2[nH]c(-c3ccc(CN4CCC(NCCCCCCCC(=O)NO)CC4)cc3)cc12)c1ccccc1` [Compound 57, (R)—N-hydroxy-8-(1-(4-(4-(1-phenylethylamino)-7H-pyrrolo[2,3-d]pyrimidin-6-yl)benzyl)piperidin-4-ylamino)octanamide], the IC50 in the assay on HDAC was 0.1 to 1 µM; on human HER2/ErbB2, under 0.1 µM.

As for `C[C@@H](Nc1ncnc2c1cc(-c1ccc(C(=O)NCCNCCCCCCC(=O)NO)cc1)n2C)c1ccccc1` [Compound 58], the results for the IC50 in the assay on HDAC, against human VEGFR2 and against human HER2/ErbB2 were 0.1 to 1 µM, 1 to 10 µM and 0.1 to 1 µM, respectively.

With `C[C@@H](Nc1ncnc2[nH]c(-c3ccc(OCCNCCCCCC(=O)NO)cc3)cc12)c1ccccc1` [Compound 59, (R)—N-hydroxy-6-(2-(4-(4-(1-phenylethylamino)-7H-pyrrolo[2,3-d]pyrimidin-6-yl)phenoxy)ethylamino)hexanamide], in the assay on HDAC, the IC50 lay in the range of 0.1 to 1 µM.

Regarding `C[C@@H](Nc1ncnc2[nH]c(-c3ccc(OCCNCCCCCCCC(=O)NO)cc3)cc12)c1ccccc1` [Compound 61, (R)—N-hydroxy-8-(2-(4-(4-(1-phenylethylamino)-7H-pyrrolo[2,3-d]pyrimidin-6-yl)phenoxy)ethylamino)octanamide], the figures for the IC50 with HDAC and on human HER2/ErbB2 were 0.1 to 1 µM and under 0.1 µM, respectively.

`C[C@@H](Nc1ncnc2[nH]c(-c3ccc(OCCCNCCCCCC(=O)NO)cc3)cc12)c1ccccc1` [Compound 62] gave a half-maximal inhibitory concentration (IC50) in the assay on HDAC of 1 to 10 µM.

The molecule `C[C@@H](Nc1ncnc2c1cc(-c1ccc(CNCCN)cc1)n2CCCCCC(=O)NO)c1ccccc1` [Compound 63] yielded an IC50 in the assay with HDAC of 0.1 to 1 µM.

As for `C[C@@H](Nc1ncnc2c1cc(-c1ccc(N)cc1)n2CCCCCC(=O)NO)c1ccccc1` [Compound 64], the IC50 in the assay on HDAC was 0.1 to 1 µM.

Turning to `C[C@@H](Nc1ncnc2c1cc(-c1ccc(N)cc1)n2CCCCCCC(=O)NO)c1ccccc1` [Compound 65], the concentration for half-maximal inhibition (IC50) in the assay on HDAC was under 0.1 µM.

`C[C@@H](Nc1ncnc2[nH]c(-c3ccc(NCCCCCC(=O)NO)cc3)cc12)c1ccccc1` [Compound 66, (R)—N-hydroxy-6-(4-(4-(1-phenylethylamino)-7H-pyrrolo[2,3-d]pyrimidin-6-yl)phenylamino)hexanamide]: the IC50 on human EGFR, at human VEGFR2 and at human HER2/ErbB2 was under 0.1 µM each time.

What is called IC50 is the concentration at which inhibition is half-maximal. Read a high IC50 as a need for much substance.
